Results as given in patent US10975119B2, “Selective cysteine protease inhibitors and uses thereof” (Genesis Technologies Limited, priority 2011, dated 2021).
Read-outs that look alike come from different tables or passages of the source.

How the values were obtained:
Format in all cases: biochemical
Caspase-1 = target: T1, Caspase-1 (Homo sapiens, UniProt P29466); experiment: Caspase-1 inhibitor screening assay (BioVision kit, YVAD-AFC); conditions: for inhibition at 10 µM: read-out: % Inhibition at 10 uM Casp1; for inhibition at 100 µM: read-out: % Inhibition at 100 uM Casp1
T1 construct: mixing the compounds with the respective active caspases; purchased BioVision K151-100
T1 sequence (P29466 120-297 limits assumed): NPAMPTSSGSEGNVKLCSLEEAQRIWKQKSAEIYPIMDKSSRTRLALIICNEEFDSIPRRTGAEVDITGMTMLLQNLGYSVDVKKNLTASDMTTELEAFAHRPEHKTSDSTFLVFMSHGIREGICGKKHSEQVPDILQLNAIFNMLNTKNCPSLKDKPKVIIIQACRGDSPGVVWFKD
T1 sequence (P29466 317-404 limits assumed): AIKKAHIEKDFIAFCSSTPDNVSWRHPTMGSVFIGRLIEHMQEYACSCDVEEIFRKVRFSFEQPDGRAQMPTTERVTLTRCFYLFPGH
Outline: (§1)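 Fluorometric read-out of free AFC released from the caspase-specific synthetic substrate. IC50 from concentration series, sometimes narrower.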

Caspase-5 = target: T2, Caspase-5 (Homo sapiens, UniProt P51878); experiment: Caspase-5 inhibitor screening assay (BioVision kit, WEHD-AFC); conditions: for inhibition at 10 µM: read-out: % Inhibition at 10 uM Casp5; for inhibition at 100 µM: read-out: % Inhibition at 100 uM Casp5; for IC50: read-out: IC50 Casp5
T2 construct: mixing the compounds with the respective active caspases; purchased BioVision K155-100
T2 sequence (P51878 137-327 limits assumed): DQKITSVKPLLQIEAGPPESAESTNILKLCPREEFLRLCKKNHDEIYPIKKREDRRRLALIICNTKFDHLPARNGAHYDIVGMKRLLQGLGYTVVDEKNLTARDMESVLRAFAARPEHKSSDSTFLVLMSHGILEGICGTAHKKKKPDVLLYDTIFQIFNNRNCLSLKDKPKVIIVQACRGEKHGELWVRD
T2 sequence (P51878 347-434 limits assumed): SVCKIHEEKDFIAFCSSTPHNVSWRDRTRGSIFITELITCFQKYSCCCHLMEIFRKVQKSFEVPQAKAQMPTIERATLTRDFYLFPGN
Outline: as §1

Caspase-6 = target: T3, Caspase-6 (Homo sapiens, UniProt P55212); experiment: Caspase-6 inhibitor screening assay (BioVision kit, VEID-AFC); conditions: for inhibition at 10 µM: read-out: % Inhibition at 10 uM Casp6; for inhibition at 100 µM: read-out: % Inhibition at 100 uM Casp6; for IC50: read-out: IC50 Casp6
T3 construct: mixing the compounds with the respective active caspases; purchased BioVision K156-100
T3 sequence (P55212 24-179 limits assumed): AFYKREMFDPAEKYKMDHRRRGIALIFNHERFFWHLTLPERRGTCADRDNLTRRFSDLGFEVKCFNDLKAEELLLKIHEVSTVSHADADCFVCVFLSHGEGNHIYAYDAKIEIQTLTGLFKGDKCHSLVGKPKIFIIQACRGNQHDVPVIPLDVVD
T3 sequence (P55212 194-293 limits assumed): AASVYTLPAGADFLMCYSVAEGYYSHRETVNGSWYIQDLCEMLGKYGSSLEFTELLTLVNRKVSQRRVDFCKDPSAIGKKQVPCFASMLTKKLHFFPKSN
Outline: as §1

Caspase-7 = target: T4, Caspase-7 (Homo sapiens, UniProt P55210); experiment: Caspase-7 inhibitor screening assay (BioVision kit, DEVD-AFC); conditions: for inhibition at 10 µM: read-out: % Inhibition at 10 uM Casp7; for inhibition at 100 µM: read-out: % Inhibition at 100 uM Casp7; for IC50: read-out: IC50 Casp7
T4 construct: mixing the compounds with the respective active caspases; purchased BioVision K157-100
T4 sequence (P55210 24-198 limits assumed): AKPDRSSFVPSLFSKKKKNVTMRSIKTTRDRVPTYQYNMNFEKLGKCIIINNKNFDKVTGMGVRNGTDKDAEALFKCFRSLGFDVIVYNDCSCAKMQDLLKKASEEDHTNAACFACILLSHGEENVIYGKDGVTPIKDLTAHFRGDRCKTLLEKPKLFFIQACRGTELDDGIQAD
T4 sequence (P55210 207-303 limits assumed): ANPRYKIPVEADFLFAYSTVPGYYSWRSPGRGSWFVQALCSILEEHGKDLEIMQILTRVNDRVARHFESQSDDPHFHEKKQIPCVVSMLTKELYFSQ
Outline: as §1

Caspase-9 = target: T5, Caspase-9 (Homo sapiens, UniProt P55211); experiment: Caspase-9 inhibitor screening assay (BioVision kit, LEHD-AFC); conditions: for inhibition at 10 µM: read-out: % Inhibition at 10 uM Casp9; for inhibition at 100 µM: read-out: % Inhibition at 100 uM Casp9; for IC50: read-out: IC50 Casp9
T5 construct: purchased BioVision K159-100
T5 sequence (P55211 1-315 limits assumed): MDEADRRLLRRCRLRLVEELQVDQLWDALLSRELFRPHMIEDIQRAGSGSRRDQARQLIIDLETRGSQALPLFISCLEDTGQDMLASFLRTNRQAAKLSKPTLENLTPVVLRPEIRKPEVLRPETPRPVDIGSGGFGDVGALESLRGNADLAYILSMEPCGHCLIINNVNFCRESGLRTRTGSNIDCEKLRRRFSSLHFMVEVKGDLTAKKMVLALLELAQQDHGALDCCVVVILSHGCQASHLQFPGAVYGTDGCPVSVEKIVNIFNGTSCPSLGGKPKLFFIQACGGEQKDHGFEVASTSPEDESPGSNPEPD
T5 sequence (P55211 331-416 limits assumed): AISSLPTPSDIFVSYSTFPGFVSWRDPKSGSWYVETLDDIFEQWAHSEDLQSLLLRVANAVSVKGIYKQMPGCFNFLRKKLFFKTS
Outline: as §1

Caspase-10 = target: T6, Caspase-10 (Homo sapiens, UniProt Q92851); experiment: Caspase-10 inhibitor screening assay (BioVision kit, AEVD-AFC); conditions: for inhibition at 10 µM: read-out: % Inhibition at 10 uM Casp10; for inhibition at 100 µM: read-out: % Inhibition at 100 uM Casp10; for IC50: read-out: IC50 Casp10
T6 construct: mixing the compounds with the respective active caspases; purchased BioVision K160-100
T6 sequence (Q92851 220-415 limits assumed): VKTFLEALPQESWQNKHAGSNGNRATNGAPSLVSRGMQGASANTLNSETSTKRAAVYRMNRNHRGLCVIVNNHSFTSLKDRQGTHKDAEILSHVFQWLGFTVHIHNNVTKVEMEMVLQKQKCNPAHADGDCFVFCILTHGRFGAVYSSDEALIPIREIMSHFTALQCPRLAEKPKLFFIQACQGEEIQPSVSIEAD
T6 sequence (Q92851 416-521 limits assumed): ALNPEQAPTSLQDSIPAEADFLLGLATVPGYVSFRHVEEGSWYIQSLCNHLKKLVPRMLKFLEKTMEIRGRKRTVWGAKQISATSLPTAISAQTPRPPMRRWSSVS
Outline: as §1

SMILES	inhibition at 10 µM (Caspase-1) [%]	inhibition at 100 µM (Caspase-1) [%]	IC50 (Caspase-1; read-out: IC50 Casp1) [µM]	inhibition at 10 µM (Caspase-5) [%]	inhibition at 100 µM (Caspase-5) [%]	IC50 (Caspase-5) [µM]	inhibition at 10 µM (Caspase-6) [%]	inhibition at 100 µM (Caspase-6) [%]	IC50 (Caspase-6) [µM]	inhibition at 10 µM (Caspase-7) [%]	inhibition at 100 µM (Caspase-7) [%]	IC50 (Caspase-7) [µM]	inhibition at 10 µM (Caspase-9) [%]	inhibition at 100 µM (Caspase-9) [%]	IC50 (Caspase-9) [µM]	inhibition at 10 µM (Caspase-10) [%]	inhibition at 100 µM (Caspase-10) [%]	IC50 (Caspase-10) [µM]	IC50 (Caspase-1; read-out: potency (IC50) against caspase-1) [µM]
CS(=O)(=O)/C=C/[C@H](CC(=O)O)NC(=O)[C@@H](N)CCC(=O)O [Compound 22, Glu-Asp methylsulfone]	0	0	> 100	11	0	> 100	1	0	> 100	0	0	> 100	2	0	> 100	15	14	> 100	–
CS(=O)(=O)/C=C/[C@H](CC(=O)O)NC(=O)[C@H]1CCC(=O)N1 [Compound 24, (2-Pyrrolidinone-5-carbonyl)-Asp methyl vinyl sulfone]	3	10	> 100	0	0	> 100	0	0	> 100	1	0	> 100	0	0	> 100	21	15	> 100	–
CS(=O)(=O)/C=C/[C@H](CC(=O)O)NC(=O)[C@H]1CCCN1C(=O)[C@@H](NC(=O)[C@H](CC(=O)O)NC(=O)OCc1ccccc1)c1ccccc1 [Compound 30, Z-Asp-Phenylglycine-Pro-Asp-methyl vinyl sulfone]	55	92	8	8	50	~100	0	2	> 100	68	97	6.12	48	92	10.8	43	92	12.9	–
CC(C)(C)[C@@H](NC(=O)[C@H](CC(=O)O)NC(=O)OCc1ccccc1)C(=O)N1CC[C@@H]1C(=O)N[C@H](/C=C/S(C)(=O)=O)CC(=O)O [Compound 32, Z-Asp-t-Leu-(Azetidine-2-carbonyl)-Asp-methyl vinyl sulfone]	44	86	13.3	23	77	35.2	0	1	> 100	97	100	0.55	91	100	1.12	97	100	0.42	–
CC(C)[C@H](NC(=O)[C@H](Cc1cn(C)c2ccccc12)NC(=O)[C@H](CC(=O)O)NC(=O)OCc1ccccc1)C(=O)N[C@H](/C=C/S(C)(=O)=O)CC(=O)O [Compound 36, Z-Asp-Trp(N-Me)-Val-Asp-methyl vinyl sulfone]	75	94	3.8	14	50	25.4	0	19	> 100	95	99	0.85	39	87	16.9	31	98	18.6	–
CCC(C)[C@H](NC(=O)[C@H](CCC(=O)O)NC(=O)[C@@H](NC(=O)OCc1ccccc1)C(C)C)C(=O)N[C@H](/C=C/S(C)(=O)=O)CC(=O)O (stereo partly drawn) [Compound 38, Z-Val-Glu-Ile-Asp-methyl vinyl sulfone]	81	97	2.7	32	81	19.6	88	96	0.6	0	31	–	82	97	0.79	100	100	0.13	–
CC(C)[C@H](NC(=O)[C@H](CCC(=O)O)NC(=O)[C@H](Cc1c[nH]c2ccccc12)NC(=O)OCc1ccccc1)C(=O)N[C@H](/C=C/S(C)(=O)=O)CC(=O)O [Compound 40, Z-Trp-Glu-Val-Asp-methyl vinyl sulfone]	99	100	–	95	100	0.75	7	51	~100	19	90	23.7	87	99	1.74	80	99	3.29	0.026
CC(C)[C@H](NC(=O)[C@@H](N)Cc1ccc(O)cc1)C(=O)N[C@@H](C)C(=O)N[C@H](/C=C/S(C)(=O)=O)CC(=O)O [Compound 42, Tyr-Val-Ala-Asp methyl vinyl sulfone]	26	72	33.8	43	93	12.4	6	4	> 100	0	0	> 100	0	26	> 100	13	79	34	–
